According to patent US7462605B2, “Phosphoramidate compounds and methods of use” (Celmed Oncology (USA), Inc., priority 2002, dated 2008):

Experiments:
Format in all cases: cell-based, human
[1] = system: TSH/HT1080 cells; assay: alamarBlue cytotoxicity, HT1080 expressing high GFP-TS; details: second line printed TSL/HT1080, TS Level 702%
Experimental: (§1) Cell lines and transfection. HT1080 cells were grown in PRM11640 medium supplemented with 10% fetal calf serum, and transfected with GFP-TS expression vector. 48 hours after, transfection cells were tripsinized and replated in culture medium containing 750 μg/ml G418. After selection with G418 for two weeks, surviving cells were sorted based upon fluorescence expression. One clone with higher fluorescence expression (named as TSH/HT1080) and one clone with lower fluorescence expression (named as TSL/HT1080) were selected and expanded into cells lines. The stable HT1080 cells transfected with pEGFP-C3 were used as control.
(§2) Construction of GFP-TS expression vector. […] The cDNA was cloned into HindIII and KpnI sites of mammalian expression vector pEGFP-C3 (Clontech Laboratories. Inc., Palo Alto, Calif.), in-frame with GFP sequence. The cDNA insert was confirmed by DNA sequencing.
(§3) Growth Inhibition Studies. Cells growing exponentially were transferred to 384-well flat bottom tissue culture plates. All cell types were plated at a density of 500 cells per well in 25 μL of complete medium (RPMI 1640+10% fetal bovine serum+antibiotics/antimycotics). […] After 4 hours incubation at 37° C., fluorescence was monitored at 535 nm excitation and 595 nm emission.
(§4) Concentration vs. relative fluorescence units (RFU) were plotted, and sigmoid curves were fit using the Hill equation.

[2] = system: CCD18co normal colon epithelial cells; assay: Thymidine rescue, alamarBlue cytotoxicity
Description: An additional approach was taken to understanding whether NB1011 might interfere with cell growth primarily by inactivating TS. This approach is based upon thymidine rescue of TS-blocked cells. […] For this reason, they survive only by scavenger mechanisms. One of the important scavenger mechanisms is utilization of extracellular thymidine. Thymidine incorporated by target cells can be converted to dTMP, usually by thymidine kinase, and thus continue DNA synthesis. Other pathways for use of exogenous thymidine have also been described If an important mechanism for NB1011 activity is via inhibition of endogenous TS, then the cytotoxicity should be relieved when thymidine is added to the cell culture media. For this experiment, a number of tumor cell lines were screened for their sensitivity to Tomudex and 5FdUrd, and ability to be rescued from these agents via thymidine supplementation. […] Experiments were carried out as described by (Patterson, et al. (1998)) with or without 10 μM thymidine, except that the alamarBlue assay was employed to determine cytotoxicity.

[3] = system: TSL/HT1080 cells; assay: alamarBlue cytotoxicity, HT1080 expressing low GFP-TS; details: TSL/HT1080, TS Level 409%
Experimental: as §1, §2, §3, §4

[4] = system: C/HT1080 cells; assay: alamarBlue cytotoxicity, control-transfected HT1080; details: C/HT1080, TS Level 100%
Experimental: as §1, §2, §3, §4

[5] = system: MCF7TDX cells; assay: 384-well interaction screening assay (alamarBlue) with NB1011, MCF7TDX; details: drug combined with NB1011, MCF7TDX, 384-well alamarBlue, 5-day
Experimental: Cell lines: Normal human colon epithelial cells (CCD18co) and skin fibroblasts (Det55 1) were purchased from ATCC (Rockville,Md.). MCF7TDX, human breast carcinoma cells resistant to 2 μM Tomudex were obtained from Dr. Patrick Johnston, Queens University, Belfast. […] The MCF7TDX and the H630R10 cell lines have been previously described in Drake, J. C. et al. (1996) and Copur, S. et al. (1995) respectively.
Culture Conditions: All cells were cultured under standard conditions of 37° C., 95% humidified air, 5% CO2 in RPMI 1640 culture medium containing 10% fetal calf serum (Life Technologies) and penicillin/streptomycin/fungizone. […] The medium was renewed or the cells were passaged about every three days to maintain optimal growth conditions. […]
Cytotoxicity Studies: 384-well interaction screening assay. […] Following a 5-day incubation, the redox indicator dye, alamarBlue (AccuMed International, Westlake, Ohio) was added to each well at a 10% v/v ratio, and fluorescence was monitored at 535 excitation, 595 emission. Cytotoxic effect levels and drug interactions were assessed by the combination index method (Chou, T. C. and Talalay, P. (1984) and Bible, K. C. et al. (1997)), described briefly below. […] Sigmoid curves were fit according to the Hill inhibitory Emax model, and IC50 calculated as the average of three or more separate determinations. […]

O=c1[nH]c(=O)n([C@H]2C[C@H](O)[C@@H](CO)O2)cc1F [FUDR]
IC50 [1]: 3.1 µM
IC50 ([2]; in the presence of 10 μM thymidine): > 5.9 µM
IC50 ([2]; without thymidine): < 0.01 µM
IC50 [3]: 2.2 µM
IC50 [4]: < 0.1 µM

N.N.[Cl][Pt][Cl] [Cisplatin]
Combination Index ± s.e.m. [5]: 1.51 ± 0.35
